Measurements published in US20150105252A1, “SUBSTITUTED PYRAZOLES AS HERBICIDES” (E I DU PONT DE NEMOURS AND COMPANY, priority 2013, published 2015).

Assays:
soybean = assay: Test C preemergence; format: in vivo, Glycine max; conditions: for Soybean plant response rating: scale 0 to 100 (0 no effect, 100 complete control)
Outline: (§1)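 Herbicidal effect is expressed as percent visual control (0–100) judged against untreated plants 13 to 15 days after treatment in the greenhouse. Preemergence pots contained seeds in a soil–sand blend; postemergence plants, 2–18 cm tall, grew in peat-based planting medium.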

foxtail, giant = assay: Test C preemergence; format: in vivo, Setaria faberii; conditions: for Foxtail, Giant plant response rating: scale 0 to 100 (0 no effect, 100 complete control)
Outline: as §1

blackgrass = assay: Test C preemergence; format: in vivo, Alopecurus myosuroides; conditions: for Blackgrass plant response rating: scale 0 to 100 (0 no effect, 100 complete control)
Outline: as §1

johnsongrass [1] = assay: Test C postemergence; format: in vivo, Sorghum halepense
Outline: as §1

pigweed [2] = assay: Test A postemergence; format: in vivo, Amaranthus retroflexus
Outline: (§2)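 Growth medium: loam soil blended with sand. Preemergence treatment used a directed soil spray right after planting; postemergence treatment targeted seedlings at one to two leaves (2–10 cm height). Response was judged by eye relative to untreated plants about 10 days later on a 0–100 control scale.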

corn = assay: Test C postemergence; format: in vivo, Zea mays
Outline: as §1

oilseed rape = assay: Test C preemergence; format: in vivo, Brassica napus; conditions: for Oilseed Rape plant response rating: scale 0 to 100 (0 no effect, 100 complete control)
Outline: as §1

waterhemp = assay: Test C postemergence; format: in vivo, Amaranthus rudis
Outline: as §1

johnsongrass [3] = assay: Test C preemergence; format: in vivo, Sorghum halepense; conditions: for Johnsongrass plant response rating: scale 0 to 100 (0 no effect, 100 complete control)
Outline: as §1

ragweed = assay: Test C preemergence; format: in vivo, Ambrosia elation; conditions: for Ragweed plant response rating: scale 0 to 100 (0 no effect, 100 complete control)
Outline: as §1

wheat = assay: Test C preemergence; format: in vivo, Triticum aestivum; conditions: for Wheat plant response rating: scale 0 to 100 (0 no effect, 100 complete control)
Outline: as §1

pigweed [4] = assay: Test A preemergence; format: in vivo, Amaranthus retroflexus; conditions: preemergence
Outline: as §2

barnyardgrass = assay: Test A preemergence; format: in vivo, Echinochloa crus-galli; conditions: preemergence
Outline: as §2

lambsquarters = assay: Test C postemergence; format: in vivo, Chenopodium album
Outline: as §1

[5] = preemergence, 31 g ai/ha, visual rating, 13 to 15 days
[6] = preemergence, 62 g ai/ha, 13 to 15 days
[7] = preemergence, 125 g ai/ha, 13 to 15 days, scale 0 to 100, 0 = no effect, 100 = complete control
[8] = Postemergence, 31 g ai/ha, visually evaluated after 13 to 15 days
[9] = postemergence, 62 g ai/ha, scale 0 to 100
[10] = postemergence, 250 g ai/ha, scale 0 to 100 (0 no effect, 100 complete control)
[11] = postemergence, 125 g ai/ha, scale 0 to 100, 0 no effect, 100 complete control
[12] = 125 g ai/ha, visual injury, 0 to 100 scale, approx. 10 days
[13] = 500 g ai/ha, visual injury after approx. 10 days, 0 to 100 scale (0 no effect, 100 complete control)

**Q.** What does the source list for `CCCc1cc(C(=O)NCC(F)(F)F)nn1Cc1ccnc(OC(F)F)c1` [Compound 127]?
**A.** Plant response rating (scale of 0 to 100), Soybean (soybean; Preemergence, 250 g ai/ha): 85; Soybean plant response rating (soybean; [5]): 30; Soybean plant response rating (soybean; [6]): 45; Plant response rating, Soybean (soybean; [7]): 65; Plant response rating (scale of 0 to 100), Foxtail, Giant (foxtail, giant; Preemergence, 250 g ai/ha): 98; Foxtail, Giant plant response rating (foxtail, giant; [5]): 98; Foxtail, Giant plant response rating (foxtail, giant; [6]): 100; Plant response rating, Foxtail, Giant (foxtail, giant; [7]): 100; Plant response rating (scale of 0 to 100), Blackgrass (blackgrass; Preemergence, 250 g ai/ha): 85; Blackgrass plant response rating (blackgrass; [5]): 20; Blackgrass plant response rating (blackgrass; [6]): 60; Plant response rating, Blackgrass (blackgrass; [7]): 60; Plant response rating (scale of 0 to 100 where 0 is no effect and 100 is complete control), Johnsongrass (johnsongrass [1]; [8]): 5; Johnsongrass plant response rating (johnsongrass [1]; [9]): 5; Plant response rating, Johnsongrass (johnsongrass [1]; [10]): 25; Plant response rating, Johnsongrass (johnsongrass [1]; [11]): 30; Pigweed plant response rating (pigweed [2]; Postemergence, 500 g ai/ha, 0 to 100 scale (0 no effect, 100 complete control)): 90; Pigweed plant response rating (pigweed [2]; postemergence, 125 g ai/ha, about 10 days, visual rating on 0 to 100 scale (0 no effect, 100 complete control)): 90; Plant response rating (scale of 0 to 100 where 0 is no effect and 100 is complete control), Corn (corn; [8]): 5; Corn plant response rating (corn; [9]): 5; Plant response rating, Corn (corn; [10]): 25; Plant response rating, Corn (corn; [11]): 10; Plant response rating (scale of 0 to 100), Oilseed Rape (oilseed rape; Preemergence, 250 g ai/ha): 100; Oilseed Rape plant response rating (oilseed rape; [5]): 85; Oilseed Rape plant response rating (oilseed rape; [6]): 100; Plant response rating, Oilseed Rape (oilseed rape; [7]): 100; Plant response rating (scale of 0 to 100 where 0 is no effect and 100 is complete control), Waterhemp (waterhemp; [8]): 50; Waterhemp plant response rating (waterhemp; [9]): 65; Plant response rating, Waterhemp (waterhemp; [10]): 70; Plant response rating, Waterhemp (waterhemp; [11]): 70; Plant response rating (scale of 0 to 100), Johnsongrass (johnsongrass [3]; Preemergence, 250 g ai/ha): 90; Johnsongrass plant response rating (johnsongrass [3]; [5]): 55; Johnsongrass plant response rating (johnsongrass [3]; [6]): 55; Plant response rating, Johnsongrass (johnsongrass [3]; [7]): 80; Plant response rating (scale of 0 to 100), Ragweed (ragweed; Preemergence, 250 g ai/ha): 90; Ragweed plant response rating (ragweed; [5]): 15; Ragweed plant response rating (ragweed; [6]): 25; Plant response rating, Ragweed (ragweed; [7]): 60; Plant response rating (scale of 0 to 100), Wheat (wheat; Preemergence, 250 g ai/ha): 85; Wheat plant response rating (wheat; [5]): 5; Wheat plant response rating (wheat; [6]): 40; Plant response rating, Wheat (wheat; [7]): 85; Pigweed plant response rating (pigweed [4]; [12]): 90; Pigweed plant response rating (pigweed [4]; [13]): 100; Barnyardgrass plant response rating (barnyardgrass; [12]): 90; Barnyardgrass plant response rating (barnyardgrass; [13]): 90; Plant response rating (scale of 0 to 100 where 0 is no effect and 100 is complete control), Lambsquarters (lambsquarters; [8]): 65; Lambsquarters plant response rating (lambsquarters; [9]): 80; Plant response rating, Lambsquarters (lambsquarters; [10]): 85; Plant response rating, Lambsquarters (lambsquarters; [11]): 85
